From patent US20140357662A1, “THIENO (2,3 - C) PYRAZOLES FOR USE AS POTASSIUM CHANNEL INHIBITORS” (XENTION LIMITED, priority 2011, published 2014)

Each compound was assayed against T1, rat Kir3.1/3.4 (Rattus norvegicus, UniProt P48548+P63251) (assay: Kir3.1/3.4 Electrophysiology Method (manual whole-cell patch clamp)). Conditions: Human Embryonic Kidney 293 stably transfected with rat Kir3.1/3.4; inhibition of leak-subtracted current at -140 mV.
T1 construct: expressed in transfected cells; host or cells: HEK293 (Human Embryonic Kidney 293), stably transfected
T1 sequence (P63251 1-501): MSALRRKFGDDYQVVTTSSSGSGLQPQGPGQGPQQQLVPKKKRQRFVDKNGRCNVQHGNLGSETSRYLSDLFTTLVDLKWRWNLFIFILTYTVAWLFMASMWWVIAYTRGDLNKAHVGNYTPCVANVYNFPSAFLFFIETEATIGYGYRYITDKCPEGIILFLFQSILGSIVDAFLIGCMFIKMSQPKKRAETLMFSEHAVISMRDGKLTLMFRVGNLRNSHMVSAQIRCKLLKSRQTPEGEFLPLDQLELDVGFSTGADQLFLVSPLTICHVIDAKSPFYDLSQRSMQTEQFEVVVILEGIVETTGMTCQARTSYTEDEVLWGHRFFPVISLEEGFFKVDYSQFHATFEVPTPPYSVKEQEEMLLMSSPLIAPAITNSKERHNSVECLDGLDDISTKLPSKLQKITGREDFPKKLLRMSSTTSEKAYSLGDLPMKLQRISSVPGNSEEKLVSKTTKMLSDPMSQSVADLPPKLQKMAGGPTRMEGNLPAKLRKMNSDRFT
T1 sequence (P48548 1-419): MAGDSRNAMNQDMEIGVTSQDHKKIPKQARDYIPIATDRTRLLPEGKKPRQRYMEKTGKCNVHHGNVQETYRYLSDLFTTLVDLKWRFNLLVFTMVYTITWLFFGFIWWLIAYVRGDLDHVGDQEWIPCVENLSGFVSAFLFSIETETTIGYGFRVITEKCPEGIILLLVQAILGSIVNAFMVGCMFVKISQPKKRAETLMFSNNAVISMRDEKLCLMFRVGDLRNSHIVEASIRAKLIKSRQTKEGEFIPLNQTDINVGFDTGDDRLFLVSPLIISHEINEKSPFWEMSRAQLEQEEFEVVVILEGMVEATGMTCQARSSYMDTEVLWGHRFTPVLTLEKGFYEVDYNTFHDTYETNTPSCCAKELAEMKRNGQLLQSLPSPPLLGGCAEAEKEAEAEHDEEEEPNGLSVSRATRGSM
Type: cell-based
Description: Compound activity against the recombinant G-protein activated inward rectifier current encoded by the heterotetramer Kir3.1/3.4 was assessed using manual whole-cell patch technique. The heterotetramer forms the pore-forming channel that conducts the acetylcholine/adenosine-activated potassium current in the heart.
For whole-cell patch-clamp studies, cells (Human Embryonic Kidney 293 stably transfected with rat Kir3.1/3.4) were seeded onto glass coverslips before recordings were made. Cells were seeded in sterile 30 mm Petri dishes at a density to enable isolated cells to be selected for patch clamp experiments. The dishes were stored in a humidified, gassed (5% CO2) incubator at 37° C. until use.
Whole-cell patch-clamp recordings of membrane currents were made following gigaohm seal formation between the patch electrode and the cell using HEKA EPC-9/10 amplifiers controlled by Pulse Software (Ver8.5x/8.6x/8.7x, HEKA, Germany). Coverslips seeded with cells were placed in a recording chamber mounted on the stage of an inverted microscope. During the experiment, the cell of interest was continuously superfused with bather solution delivered via a cannula placed in close proximity to the cell to enable control of the extracellular solution environment. Only those cells with a current <−500 pA (current at −140 mV) were used for experiments. During experiments, series resistance was compensated by a minimum of 70%.
Electrophysiology voltage-step protocols and analysis of data were performed as follows. Data was sampled at 5 kHz, and filtered with a −3 dB bandwidth of 2.5 kHz. Cells were held at a voltage of −60 mV. Currents were evoked by a depolarising voltage step to +60 mV (100 ms) before a ramp-repolarisation (0.4 V·s^−1) to −140 mV (100 ms) before returning to −60 mV. The command waveform was repeatedly applied every 10 s throughout the experiment. Mean currents during 1-99% of the time at −140 mV were analysed using Pulsefit software (v8.x, HEKA, Germany). The voltage protocol was repeatedly applied to achieve a stable current baseline in bather before the test substance was superfused via the cannula in close proximity to the cell under investigation. The test substance was allowed to equilibrate during which time voltage protocol was repeatedly applied and recorded. On reaching steady-state inhibition, the cell was superfused with an identical bather solution containing zero external potassium chloride (replaced by equimolar NaCl). The identical current measurement was made in the absence of potassium to assess the passive leak at −140 mV. The leak current was subtracted from the control and steady-state drug current values. The percentage inhibition of the leak-subtracted current in the presence of test substance was calculated relative to the control leak-subtracted pre-drug value. Internal patch-pipette solution contained in mM: 110 KCl, 20 NaCl, 0.9 GTPγS, 5 Mg-ATP, 5 EGTA, 10 HEPES, pH7.2 corrected with KOH. The external superfusate composition in mM was: 150 (or 160) NaCl, 10 (or 0) KCl, 3 CaCl2, 1 MgCl, 10 HEPES, pH 7.4 corrected with NaOH.

| Compound | IC50 |
| --- | --- |
| Brc1sc2[nH]nc(N3CC4CC3CC4OCCN3CCCC3)c2c1-c1ccccc1 (stereo not drawn) [Compound 2, 5-bromo-4-phenyl-3-[5-(2-pyrrolidin-1-ylethoxy)-2-azabicyclo[2.2.1]heptan-2-yl]-1H-thieno[2,3-c]pyrazole] | < 500 nM |
| c1ccc(-c2csc3[nH]nc(N4CC5CC4CC5OCCN4CCCC4)c23)cc1 (stereo not drawn) [Compound 4, 4-phenyl-3-[5-(2-pyrrolidin-1-ylethoxy)-2-azabicyclo[2.2.1]heptan-2-yl]-1H-thieno[2,3-c]pyrazole] | < 500 nM |
| Fc1ccc(-c2csc3[nH]nc(N4CC5CC4CC5OCCN4CCCC4)c23)cc1 (stereo not drawn) [Compound 5, 4-(4-fluorophenyl)-3-[5-(2-pyrrolidin-1-ylethoxy)-2-azabicyclo[2.2.1]heptan-2-yl]-1H-thieno[2,3-c]pyrazole] | < 500 nM |
| c1ccc(-c2csc3[nH]nc(N4C5CCC4CC(COCCN4CCCC4)C5)c23)cc1 (stereo not drawn) [Compound 6, 4-phenyl-3-[3-(2-pyrrolidin-1-ylethoxymethyl)-8-azabicyclo[3.2.1]octan-8-yl]-1H-thieno[2,3-c]pyrazole] | < 500 nM |
| c1ccc(-c2csc3[nH]nc(N4C5CCC4CC(OCCN4CCCC4)C5)c23)cc1 (stereo not drawn) [Compound 7, 4-phenyl-3-[3-(2-pyrrolidin-1-ylethoxy)-8-azabicyclo[3.2.1]octan-8-yl]-1H-thieno[2,3-c]pyrazole] | < 500 nM |
| c1ccc(-c2csc3[nH]nc(N4CCCC(COCCN5CCCC5)C4)c23)cc1 (stereo not drawn) [Compound 8, 4-phenyl-3-[3-(2-pyrrolidin-1-ylethoxymethyl)-1-piperidyl]-1H-thieno[2,3-c]pyrazole] | < 500 nM |
| c1ccc(-c2csc3[nH]nc(N4C5CCC4CC(NC4CCC4)C5)c23)cc1 (stereo not drawn) [Compound 10, N-cyclobutyl-8-(4-phenyl-1H-thieno[2,3-c]pyrazol-3-yl)-8-azabicyclo[3.2.1]octan-3-amine] | < 500 nM |
| c1ccc(-c2csc3[nH]nc(N4C5CCC4CC(N4CCC4)C5)c23)cc1 (stereo not drawn) [Compound 11, 3-[3-(azetidin-1-yl)-8-azabicyclo[3.2.1]octan-8-yl]-4-phenyl-1H-thieno[2,3-c]pyrazole] | 500 to 3000 nM |
| CC(C)NC1CC2CCC(C1)N2c1n[nH]c2scc(-c3ccccc3)c12 (stereo not drawn) [Compound 12, N-isopropyl-8-(4-phenyl-1H-thieno[2,3-c]pyrazol-3-yl)-8-azabicyclo[3.2.1]octan-3-amine] | 500 to 3000 nM |
| CC(=O)n1nc(N2CC3CC2CC3OCCN2CCCC2)c2c(-c3ccccc3)csc21 (stereo not drawn) [Compound 14, 1-[4-phenyl-3-[5-(2-pyrrolidin-1-ylethoxy)-2-azabicyclo[2.2.1]heptan-2-yl]thieno[2,3-c]pyrazol-1-yl]ethanone] | < 500 nM |
| CC(=O)n1nc(N2CC3CC2CC3OCCN2CCCC2)c2c(-c3ccc(F)cc3)csc21 (stereo not drawn) [Compound 15, 1-[4-(4-fluorophenyl)-3-[5-(2-pyrrolidin-1-ylethoxy)-2-azabicyclo[2.2.1]heptan-2-yl]thieno[2,3-c]pyrazol-1-yl]ethanone] | < 500 nM |
| CS(=O)(=O)n1nc(N2CC3CC2CC3OCCN2CCCC2)c2c(-c3ccc(F)cc3)csc21 (stereo not drawn) [Compound 16, 4-(4-fluorophenyl)-1-methylsulfonyl-3-[5-(2-pyrrolidin-1-ylethoxy)-2-azabicyclo[2.2.1]heptan-2-yl]thieno[2,3-c]pyrazole] | < 500 nM |
| CC(=O)n1nc(N2C3CCC2CC(OCCN2CCCC2)C3)c2c(-c3ccccc3)csc21 (stereo not drawn) [Compound 17, 1-[4-phenyl-3-[3-(2-pyrrolidin-1-ylethoxy)-8-azabicyclo[3.2.1]octan-8-yl]thieno[2,3-c]pyrazol-1-yl]ethanone] | < 500 nM |
| CC(=O)n1nc(N2CCCC(COCCN3CCCC3)C2)c2c(-c3ccccc3)csc21 (stereo not drawn) [Compound 18, 1-[4-phenyl-3-[3-(2-pyrrolidin-1-ylethoxymethyl)-1-piperidyl]thieno[2,3-c]pyrazol-1-yl]ethanone] | < 500 nM |
| CC(=O)n1nc(N2CCC(COCCN3CCCC3)C2)c2c(-c3ccccc3)csc21 (stereo not drawn) [Compound 19, 1-[4-phenyl-3-[3-(2-pyrrolidin-1-ylethoxymethyl)pyrrolidin-1-yl]thieno[2,3-c]pyrazol-1-yl]ethanone] | < 500 nM |
| CS(=O)(=O)n1nc(N2CCC(COCCN3CCCC3)CC2)c2c(-c3ccccc3)csc21 [Compound 20, 1-methylsulfonyl-4-phenyl-3-[4-(2-pyrrolidin-1-ylethoxymethyl)-1-piperidyl]thieno[2,3-c]pyrazole] | < 500 nM |

Second part, the compound after the results:

| IC50 | Compound |
| --- | --- |
| < 500 nM | c1ccc(-c2csc3[nH]nc(N4CCC(COCCN5CCCC5)CC4)c23)cc1 [Compound 1, 4-phenyl-3-[4-(2-pyrrolidin-1-ylethoxymethyl)-1-piperidyl]-1H-thieno[2,3-c]pyrazole] |
| < 500 nM | N#Cc1sc2[nH]nc(N3CCC(COCCN4CCCC4)CC3)c2c1-c1ccccc1 [Compound 3, 4-phenyl-3-[4-(2-pyrrolidin-1-ylethoxymethyl)-1-piperidyl]-1H-thieno[2,3-c]pyrazole-5-carbonitrile] |
| < 500 nM | c1ccc(-c2csc3[nH]nc(N4CCC(COCCN5CCCC5)C4)c23)cc1 (stereo not drawn) [Compound 9, 4-phenyl-3-[3-(2-pyrrolidin-1-ylethoxymethyl)pyrrolidin-1-yl]-1H-thieno[2,3-c]pyrazole] |
| < 500 nM | CC(=O)n1nc(N2CCC(COCCN3CCCC3)CC2)c2c(-c3ccccc3)csc21 [Compound 13, 1-[4-phenyl-3-[4-(2-pyrrolidin-1-ylethoxymethyl)-1-piperidyl]thieno[2,3-c]pyrazol-1-yl]ethanone] |
| < 500 nM | Cn1nc(N2CCC(COCCN3CCCC3)CC2)c2c(-c3ccccc3)csc21 [Compound 21, 1-methyl-4-phenyl-3-[4-(2-pyrrolidin-1-ylethoxymethyl)-1-piperidyl]thieno[2,3-c]pyrazole] |
| 500 to 3000 nM | CN(C)C(=O)c1sc2c(c(N3CCC(COCCN4CCCC4)CC3)nn2C)c1-c1ccccc1 [Compound 22, N,N,1-trimethyl-4-phenyl-3-[4-(2-pyrrolidin-1-ylethoxymethyl)-1-piperidyl]thieno[2,3-c]pyrazole-5-carboxamide] |
| 500 to 3000 nM | CN(C)C(=O)c1sc2[nH]nc(N3CCC(COCCN4CCCC4)CC3)c2c1-c1ccccc1 [Compound 23, N,N-dimethyl-4-phenyl-3-[4-(2-pyrrolidin-1-ylethoxymethyl)-1-piperidyl]-1H-thieno[2,3-c]pyrazole-5-carboxamide] |
| < 500 nM | CC(C)NC(=O)c1sc2[nH]nc(N3CCC(COCCN4CCCC4)CC3)c2c1-c1ccccc1 [Compound 24, N-isopropyl-4-phenyl-3-[4-(2-pyrrolidin-1-ylethoxymethyl)-1-piperidyl]-1H-thieno[2,3-c]pyrazole-5-carboxamide] |
